Measurements: ChEMBL document CHEMBL1255531, “Utilization of a nitrogen-sulfur nonbonding interaction in the design of new 2-aminothiazol-5-yl-pyrimidines as p38α MAP kinase inhibitors” (Bioorg Med Chem Lett, 2010)
≈ marks a conversion by molar mass, not a printed value. Blank lines part the entries; values can stand above or below the compound they belong to. Calls of active or inactive are those of the source. The rule behind the calls is not given here.

Experiments:
PBMC = assay: Antiinflammatory activity in human PBMC assessed as inhibition of LPS-induced TNFalpha production after 6 hrs by ELISA; format: functional, cell-based
[1] = target: Mitogen-activated protein kinase 14 (Homo sapiens, UniProt Q16539); assay: Inhibition of bacterially expressed activated p38alpha pre-incubated 10 mins measured after 45 mins by scintillation counting
Chain of Mitogen-activated protein kinase 14 (Q16539 whole entry): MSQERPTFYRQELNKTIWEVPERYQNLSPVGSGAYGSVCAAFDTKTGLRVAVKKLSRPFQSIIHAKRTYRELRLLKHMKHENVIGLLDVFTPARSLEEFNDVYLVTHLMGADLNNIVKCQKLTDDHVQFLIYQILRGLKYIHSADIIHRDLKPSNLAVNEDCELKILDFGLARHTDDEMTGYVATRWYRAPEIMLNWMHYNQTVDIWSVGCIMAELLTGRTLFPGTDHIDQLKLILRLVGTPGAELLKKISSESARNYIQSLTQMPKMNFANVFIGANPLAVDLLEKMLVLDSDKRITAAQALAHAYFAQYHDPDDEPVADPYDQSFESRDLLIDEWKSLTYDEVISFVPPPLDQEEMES

[2] = target: Angiopoietin-1 receptor (Homo sapiens) (UniProt Q02763); assay: Inhibition of TIE2 at 10 uM relative to control
[3] = target: Serine/threonine-protein kinase pim-1 (Homo sapiens) (UniProt P11309); assay: Inhibition of PIM1 at 10 uM relative to control
[4] = target: Casein kinase I isoform epsilon (Homo sapiens) (UniProt P49674); assay: Inhibition of CK1E at 10 uM relative to control
Chain of Casein kinase I isoform epsilon (Homo sapiens) (P49674 whole entry, looked up, canonical isoform): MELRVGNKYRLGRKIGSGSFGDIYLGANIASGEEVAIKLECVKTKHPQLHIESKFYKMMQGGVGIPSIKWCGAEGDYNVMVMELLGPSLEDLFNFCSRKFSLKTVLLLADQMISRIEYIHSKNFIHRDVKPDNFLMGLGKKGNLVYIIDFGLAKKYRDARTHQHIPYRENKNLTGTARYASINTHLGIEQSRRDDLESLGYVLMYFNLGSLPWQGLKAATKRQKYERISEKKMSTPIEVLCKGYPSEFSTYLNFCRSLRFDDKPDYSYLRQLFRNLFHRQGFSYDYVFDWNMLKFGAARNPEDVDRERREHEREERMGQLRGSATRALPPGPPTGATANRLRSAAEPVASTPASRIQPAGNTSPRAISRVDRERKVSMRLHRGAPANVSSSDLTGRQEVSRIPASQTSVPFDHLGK

[5] = target: Dual specificity protein kinase CLK1 (Homo sapiens) (UniProt P49759); assay: Inhibition of CLK1 at 10 uM relative to control
[6] = target: Fibroblast growth factor receptor 1 (Homo sapiens) (UniProt P11362); assay: Inhibition of FGF1R at 10 uM relative to control
[7] = target: Serine/threonine-protein kinase PAK 4 (Homo sapiens) (UniProt O96013); assay: Inhibition of PAK4 at 10 uM relative to control
[8] = target: Aurora kinase A (Homo sapiens) (UniProt O14965); assay: Inhibition of aurora A at 10 uM relative to control
Chain of Aurora kinase A (Homo sapiens) (O14965 whole entry): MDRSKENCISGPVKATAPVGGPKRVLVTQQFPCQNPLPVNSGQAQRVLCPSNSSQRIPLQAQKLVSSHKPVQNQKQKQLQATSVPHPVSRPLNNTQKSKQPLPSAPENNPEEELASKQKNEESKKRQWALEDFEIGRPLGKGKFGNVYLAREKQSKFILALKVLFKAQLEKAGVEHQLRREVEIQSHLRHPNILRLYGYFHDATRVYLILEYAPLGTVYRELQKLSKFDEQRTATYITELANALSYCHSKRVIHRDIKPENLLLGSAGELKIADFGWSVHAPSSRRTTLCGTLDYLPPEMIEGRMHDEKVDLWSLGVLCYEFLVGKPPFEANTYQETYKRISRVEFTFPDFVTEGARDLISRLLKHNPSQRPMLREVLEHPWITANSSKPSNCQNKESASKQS

[9] = target: Mitogen-activated protein kinase 10 (Homo sapiens) (UniProt P53779); assay: Inhibition of JNK3 at 10 uM relative to control
[10] = target: Receptor-type tyrosine-protein kinase FLT3 (Homo sapiens) (UniProt P36888); assay: Inhibition of FLT3 at 10 uM relative to control
[11] = target: Serine/threonine-protein kinase 16 (Homo sapiens) (UniProt O75716); assay: Inhibition of STK16 at 10 uM relative to control
[12] = target: Myosin light chain kinase 2, skeletal/cardiac muscle (Homo sapiens) (UniProt Q9H1R3); assay: Inhibition of skeletal muscle MLCK at 10 uM relative to control; conditions: Muscle tissue
[13] = target: Vascular endothelial growth factor receptor 2 (Homo sapiens) (UniProt P35968); assay: Inhibition of KDR at 10 uM relative to control
[14] = target: Serine/threonine-protein kinase PAK 5 (Homo sapiens) (UniProt Q9P286); assay: Inhibition of PAK5 at 10 uM relative to control
[15] = target: Calcium/calmodulin-dependent protein kinase type 1D (Homo sapiens) (UniProt Q8IU85); assay: Inhibition of CAMK1D at 10 uM relative to control
[16] = Selectivity ratio of IC50 for p38alpha to IC50 for LIMK1
[17] = target: Insulin receptor (Homo sapiens) (UniProt P06213); assay: Inhibition of INSR at 10 uM relative to control
[18] = target: Mitogen-activated protein kinase 8 (Homo sapiens) (UniProt P45983); assay: Inhibition of JNK1 at 10 uM relative to control
Chain of Mitogen-activated protein kinase 8 (Homo sapiens) (P45983 whole entry): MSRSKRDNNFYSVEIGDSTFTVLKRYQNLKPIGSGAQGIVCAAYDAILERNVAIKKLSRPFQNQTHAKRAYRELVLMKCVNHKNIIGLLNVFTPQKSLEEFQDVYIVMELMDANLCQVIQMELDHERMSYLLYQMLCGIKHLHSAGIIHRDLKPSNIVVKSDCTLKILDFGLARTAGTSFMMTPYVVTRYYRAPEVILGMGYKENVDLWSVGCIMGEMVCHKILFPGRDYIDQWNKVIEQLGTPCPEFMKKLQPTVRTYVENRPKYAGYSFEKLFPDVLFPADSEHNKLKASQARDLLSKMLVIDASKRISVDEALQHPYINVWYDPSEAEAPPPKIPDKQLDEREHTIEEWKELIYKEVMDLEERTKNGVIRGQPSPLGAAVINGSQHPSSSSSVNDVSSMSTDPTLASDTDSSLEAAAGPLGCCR

[19] = Aqueous solubility of the compound at pH 6.5; format: physicochemical; conditions: buffer
[20] = target: Tyrosine-protein kinase ABL1 (Homo sapiens) (UniProt P00519); assay: Inhibition of ABL1 at 10 uM relative to control
[21] = target: Ephrin type-B receptor 4 (Homo sapiens) (UniProt P54760); assay: Inhibition of EPHB4 at 10 uM relative to control
[22] = target: Serine/threonine-protein kinase MARK2 (Homo sapiens) (UniProt Q7KZI7); assay: Inhibition of MARK2 at 10 uM relative to control
[23] = target: Calcium/calmodulin-dependent protein kinase type 1 (Homo sapiens) (UniProt Q14012); assay: Inhibition of CAMK1A at 10 uM relative to control
[24] = target: Cyclin-G-associated kinase (Homo sapiens) (UniProt O14976); assay: Inhibition of GAK at 10 uM relative to control
[25] = target: Epidermal growth factor receptor (Homo sapiens) (UniProt P00533); assay: Inhibition of EGFR at 10 uM relative to control
[26] = target: Ephrin type-A receptor 2 (Homo sapiens) (UniProt P29317); assay: Inhibition of EPHA2 at 10 uM relative to control
[27] = target: Proto-oncogene tyrosine-protein kinase Src (Homo sapiens) (UniProt P12931); assay: Inhibition of SRC at 10 uM relative to control
[28] = target: Platelet-derived growth factor receptor beta (Homo sapiens) (UniProt P09619); assay: Inhibition of PDGRB at 10 uM relative to control
[29] = target: Tyrosine-protein kinase CSK (Homo sapiens) (UniProt P41240); assay: Inhibition of CSK at 10 uM relative to control
[30] = target: Aurora kinase C (Homo sapiens) (UniProt Q9UQB9); assay: Inhibition of aurora C at 10 uM relative to control
[31] = target: MAP kinase-interacting serine/threonine-protein kinase 2 (Homo sapiens) (UniProt Q9HBH9); assay: Inhibition of MNK2 at 10 uM relative to control
[32] = target: Death-associated protein kinase 2 (Homo sapiens) (UniProt Q9UIK4); assay: Inhibition of DAPK2 at 10 uM relative to control
Chain of Death-associated protein kinase 2 (Homo sapiens) (Q9UIK4 whole entry, looked up): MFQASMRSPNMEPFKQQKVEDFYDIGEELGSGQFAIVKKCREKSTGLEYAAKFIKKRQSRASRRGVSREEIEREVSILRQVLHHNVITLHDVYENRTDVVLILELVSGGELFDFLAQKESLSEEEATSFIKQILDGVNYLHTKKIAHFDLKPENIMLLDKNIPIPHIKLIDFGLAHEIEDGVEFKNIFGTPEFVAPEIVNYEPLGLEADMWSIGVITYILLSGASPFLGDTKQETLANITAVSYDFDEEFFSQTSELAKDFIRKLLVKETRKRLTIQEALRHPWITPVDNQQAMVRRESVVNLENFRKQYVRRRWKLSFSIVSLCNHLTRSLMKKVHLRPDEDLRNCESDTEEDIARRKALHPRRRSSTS

[33] = target: 5'-AMP-activated protein kinase catalytic subunit alpha-1 (Homo sapiens) (UniProt Q13131); assay: Inhibition of AMPKA1 at 10 uM relative to control
[34] = target: Cyclin-dependent kinase 2 (Homo sapiens) (UniProt P24941); assay: Inhibition of CDK2 at 10 uM relative to control
[35] = target: Serine/threonine-protein kinase PAK 1 (Homo sapiens) (UniProt Q13153); assay: Inhibition of PAK1 at 10 uM relative to control
[36] = target: Insulin-like growth factor 1 receptor (Homo sapiens) (UniProt P08069); assay: Inhibition of IGF1R at 10 uM relative to control
Chain of Insulin-like growth factor 1 receptor (Homo sapiens) (P08069 31-736 limits assumed): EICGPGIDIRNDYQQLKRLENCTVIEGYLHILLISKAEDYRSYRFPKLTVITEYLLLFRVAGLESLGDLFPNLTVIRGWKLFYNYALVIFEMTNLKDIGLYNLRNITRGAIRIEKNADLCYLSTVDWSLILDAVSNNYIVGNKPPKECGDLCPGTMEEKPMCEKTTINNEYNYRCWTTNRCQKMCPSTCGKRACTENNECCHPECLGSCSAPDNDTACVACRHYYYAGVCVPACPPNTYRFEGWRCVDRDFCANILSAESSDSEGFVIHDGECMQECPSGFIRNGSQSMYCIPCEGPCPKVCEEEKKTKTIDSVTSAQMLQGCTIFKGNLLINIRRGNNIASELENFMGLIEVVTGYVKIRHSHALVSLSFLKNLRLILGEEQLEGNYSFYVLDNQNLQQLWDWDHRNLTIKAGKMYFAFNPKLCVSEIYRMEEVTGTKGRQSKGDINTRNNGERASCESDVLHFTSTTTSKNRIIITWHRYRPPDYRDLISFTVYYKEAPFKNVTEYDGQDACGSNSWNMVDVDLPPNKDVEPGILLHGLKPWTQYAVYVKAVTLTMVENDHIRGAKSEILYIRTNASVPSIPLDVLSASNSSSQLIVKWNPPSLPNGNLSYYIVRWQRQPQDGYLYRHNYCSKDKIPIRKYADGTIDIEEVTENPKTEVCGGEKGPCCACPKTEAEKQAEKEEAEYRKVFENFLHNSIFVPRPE
Chain of Insulin-like growth factor 1 receptor (Homo sapiens) (P08069 741-1367 limits assumed): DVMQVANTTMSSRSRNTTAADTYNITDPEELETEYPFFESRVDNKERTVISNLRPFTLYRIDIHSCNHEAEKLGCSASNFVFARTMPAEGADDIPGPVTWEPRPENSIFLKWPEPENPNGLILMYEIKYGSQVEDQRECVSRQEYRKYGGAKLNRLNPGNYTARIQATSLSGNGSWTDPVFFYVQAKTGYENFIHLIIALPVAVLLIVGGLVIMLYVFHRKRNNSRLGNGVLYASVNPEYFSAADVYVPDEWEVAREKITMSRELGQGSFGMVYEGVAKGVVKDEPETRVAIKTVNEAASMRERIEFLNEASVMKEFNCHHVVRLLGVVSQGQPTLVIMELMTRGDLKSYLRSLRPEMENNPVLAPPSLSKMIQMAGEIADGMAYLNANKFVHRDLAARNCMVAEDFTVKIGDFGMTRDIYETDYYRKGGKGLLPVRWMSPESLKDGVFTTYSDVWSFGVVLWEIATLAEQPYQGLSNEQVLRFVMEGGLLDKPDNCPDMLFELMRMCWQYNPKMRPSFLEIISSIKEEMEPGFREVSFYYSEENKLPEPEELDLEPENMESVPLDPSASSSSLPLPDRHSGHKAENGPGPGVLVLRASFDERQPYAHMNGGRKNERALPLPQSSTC

[37] = Selectivity ratio of IC50 for p38alpha to IC50 for LIMK2
[38] = target: Mast/stem cell growth factor receptor Kit (Homo sapiens) (UniProt P10721); assay: Inhibition of KIT at 10 uM relative to control
[39] = target: Mitogen-activated protein kinase kinase kinase 4 (Homo sapiens) (UniProt Q9Y6R4); assay: Inhibition of MAP3K4 at 10 uM relative to control
[40] = target: Tyrosine-protein kinase SYK (Homo sapiens) (UniProt P43405); assay: Inhibition of SYK at 10 uM relative to control
[41] = target: Serine/threonine-protein kinase Nek2 (Homo sapiens) (UniProt P51955); assay: Inhibition of NEK2 at 10 uM relative to control
[42] = target: High affinity nerve growth factor receptor (Homo sapiens) (UniProt P04629); assay: Inhibition of TRKA at 10 uM relative to control
[43] = target: Phosphorylase b kinase gamma catalytic chain, skeletal muscle/heart isoform (Homo sapiens) (UniProt Q16816); assay: Inhibition of PHKG1 at 10 uM relative to control
Chain of Phosphorylase b kinase gamma catalytic chain, skeletal muscle/heart isoform (Homo sapiens) (Q16816 whole entry, looked up, the tested form may be a part, canonical isoform): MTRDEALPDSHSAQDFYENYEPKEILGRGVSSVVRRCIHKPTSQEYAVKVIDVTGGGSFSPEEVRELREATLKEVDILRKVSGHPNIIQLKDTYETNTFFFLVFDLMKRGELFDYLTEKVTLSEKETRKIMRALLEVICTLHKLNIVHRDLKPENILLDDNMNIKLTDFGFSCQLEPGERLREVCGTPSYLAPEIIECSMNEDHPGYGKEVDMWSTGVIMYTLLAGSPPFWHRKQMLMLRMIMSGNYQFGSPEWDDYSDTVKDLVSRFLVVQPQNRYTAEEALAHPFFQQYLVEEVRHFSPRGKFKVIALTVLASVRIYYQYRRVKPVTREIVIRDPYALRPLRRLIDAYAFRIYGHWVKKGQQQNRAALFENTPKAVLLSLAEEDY

LIM domain kinase 2 = LIM domain kinase 2 (Homo sapiens, UniProt P53671); assay: Inhibition of LIMK2
Chain of LIM domain kinase 2 (P53671 whole entry, the tested form may be a part): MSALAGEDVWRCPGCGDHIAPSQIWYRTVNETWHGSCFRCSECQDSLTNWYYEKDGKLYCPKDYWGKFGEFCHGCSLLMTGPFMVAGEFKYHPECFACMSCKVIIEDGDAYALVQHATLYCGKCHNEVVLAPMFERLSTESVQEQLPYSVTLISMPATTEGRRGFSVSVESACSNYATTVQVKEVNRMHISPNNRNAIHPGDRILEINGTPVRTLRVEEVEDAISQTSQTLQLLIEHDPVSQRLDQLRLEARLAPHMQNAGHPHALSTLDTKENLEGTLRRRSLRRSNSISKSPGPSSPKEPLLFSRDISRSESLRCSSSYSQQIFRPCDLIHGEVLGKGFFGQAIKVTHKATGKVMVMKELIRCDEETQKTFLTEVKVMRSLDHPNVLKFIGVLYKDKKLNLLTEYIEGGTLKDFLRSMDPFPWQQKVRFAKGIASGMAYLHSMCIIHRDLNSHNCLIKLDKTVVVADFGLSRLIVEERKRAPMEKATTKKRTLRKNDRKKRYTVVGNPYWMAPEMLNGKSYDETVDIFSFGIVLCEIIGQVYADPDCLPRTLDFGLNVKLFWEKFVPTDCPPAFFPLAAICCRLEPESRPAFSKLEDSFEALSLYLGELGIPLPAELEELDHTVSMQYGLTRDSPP

LIM domain kinase 1 = LIM domain kinase 1 (Homo sapiens, UniProt P53667); assay: Inhibition of LIMK1
Chain of LIM domain kinase 1 (P53667 whole entry, the tested form may be a part): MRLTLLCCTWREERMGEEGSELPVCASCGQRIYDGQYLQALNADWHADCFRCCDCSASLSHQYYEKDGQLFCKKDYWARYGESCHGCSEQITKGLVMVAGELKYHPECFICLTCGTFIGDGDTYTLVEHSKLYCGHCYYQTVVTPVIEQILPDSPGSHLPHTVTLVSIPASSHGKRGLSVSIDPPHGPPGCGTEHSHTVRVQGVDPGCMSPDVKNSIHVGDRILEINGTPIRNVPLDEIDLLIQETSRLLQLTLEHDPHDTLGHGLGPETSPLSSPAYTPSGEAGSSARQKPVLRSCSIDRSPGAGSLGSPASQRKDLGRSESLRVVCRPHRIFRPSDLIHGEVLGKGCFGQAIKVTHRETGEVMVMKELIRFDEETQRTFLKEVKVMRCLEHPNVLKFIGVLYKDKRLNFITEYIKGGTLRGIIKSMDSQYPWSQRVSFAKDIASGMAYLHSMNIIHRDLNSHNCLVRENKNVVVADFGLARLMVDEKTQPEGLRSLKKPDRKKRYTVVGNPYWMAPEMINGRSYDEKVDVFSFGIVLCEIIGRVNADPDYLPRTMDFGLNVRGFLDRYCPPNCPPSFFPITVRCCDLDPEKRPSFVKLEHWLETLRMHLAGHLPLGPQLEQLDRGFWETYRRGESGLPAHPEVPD

SMILES: CCNC(=O)NCc1ccccc1-c1cc(-c2cnc(NC(C)C)s2)nc(NCCN(C)C)n1
inhibition [2]: inactive
inhibition [3]: inactive
inhibition [4]: inactive
inhibition [5]: inactive
inhibition [6]: inactive
IC50 (PBMC): 3 nM
inhibition [7]: inactive
inhibition [8]: inactive
inhibition [9]: 0.2%
inhibition [10]: inactive
inhibition [11]: inactive
inhibition [12]: inactive
inhibition [13]: inactive
inhibition [14]: inactive
inhibition [15]: inactive
Selectivity ratio [16]: > 10000
inhibition [17]: inactive
inhibition [18]: 24.9%
solubility [19]: 5940 ng/mL (≈ 12.3 µM)
inhibition [20]: inactive
inhibition [21]: inactive
inhibition [22]: inactive
inhibition [23]: inactive
inhibition [24]: inactive
inhibition [25]: inactive
inhibition [26]: inactive
inhibition [27]: inactive
inhibition [28]: 11.3%
inhibition [29]: inactive
inhibition [30]: inactive
inhibition [31]: inactive
inhibition [32]: inactive
inhibition [33]: inactive
inhibition [34]: inactive
inhibition [35]: inactive
inhibition [36]: inactive
Selectivity ratio [37]: > 10000
inhibition [38]: 14.5%
inhibition [39]: inactive
inhibition [40]: inactive
inhibition [41]: inactive
inhibition [42]: inactive
inhibition [43]: inactive

SMILES: CC(C)Nc1ncc(-c2cc(-c3ccccc3Cl)nc(NCC(O)CO)n2)s1 (stereo not given)
IC50 (PBMC): 11 nM
IC50 [1]: 6 nM

SMILES: CCCNc1ncc(-c2ccnc(-c3ccccn3)n2)s1
IC50 [1]: 314 nM

SMILES: CC[C@H](C)Nc1ncc(-c2cc(-c3ccccc3Cl)nc(-c3ccccn3)n2)s1
IC50 (PBMC): 31 nM
solubility [19]: < 5 ng/mL
IC50 [1]: 8 nM

SMILES: CC(C)Nc1ncc(-c2cc(-c3ccccc3CNC(=O)NC3CC3)nc(NCCN(C)C)n2)s1
IC50 (PBMC): 11 nM
IC50 [1]: 16 nM

SMILES: CNC(=O)NCc1ccccc1-c1cc(-c2cnc(NC(C)C)s2)nc(NCCN(C)C)n1
IC50 (PBMC): 12 nM
IC50 [1]: 2 nM

SMILES: CCCNc1ncc(-c2cc(-c3ccccc3F)nc(N)n2)s1
IC50 [1]: 225 nM

SMILES: CCCNc1ncc(-c2cc(-c3ccccc3F)nc(C3CC3)n2)s1
IC50 [1]: > 1000 nM

SMILES: CCCNc1ncc(-c2cc(-c3ccccc3F)nc(C)n2)s1
IC50 [1]: 520 nM

SMILES: CCCNc1ncc(-c2ccnc(C3CC3)n2)s1
IC50 [1]: > 1000 nM

SMILES: CC(C)Nc1ncc(-c2ccnc(-c3ccccc3Cl)n2)s1
IC50 [1]: 223 nM

SMILES: CC(C)Nc1ncc(-c2cc(-c3ccccc3Cl)nc(NCCO)n2)s1
IC50 (PBMC): 8 nM
IC50 [1]: 8 nM

SMILES: CCCNc1ncc(-c2ccnc(-c3ccccc3F)n2)s1
IC50 [1]: > 30000 nM

SMILES: CC[C@@H](C)Nc1ncc(-c2cc(-c3ccccc3Cl)nc(-c3ccccn3)n2)s1
IC50 (PBMC): 13 nM
solubility [19]: < 5 ng/mL
IC50 [1]: 5 nM

SMILES: CC(C)Nc1ncc(-c2cc(-c3ccccc3Cl)nc(NCCN(C)C)n2)s1
IC50 (PBMC): 1 nM
solubility [19]: 994 ng/mL (≈ 2.38 µM)
IC50 [1]: 5 nM
IC50 (LIM domain kinase 2): 3.05 nM
IC50 (LIM domain kinase 1): 4.01 nM

SMILES: CC(C)Nc1ncc(-c2cc(-c3ccccc3Cl)ncn2)s1
IC50 (PBMC): 31 nM
IC50 [1]: 46 nM

Second part, led by results:

IC50 [1]: 16 nM
SMILES: Clc1ccccc1-c1cc(-c2cnc(NC3CCC3)s2)nc(-c2ccccn2)n1
IC50 (PBMC): 28 nM

IC50 [1]: 16 nM
SMILES: CC(C)Nc1ncc(-c2cc(-c3ccccc3Cl)nc(N)n2)s1
IC50 (PBMC): > 250 nM

IC50 [1]: 52 nM
SMILES: CCCNc1ncc(-c2cc(-c3ccccc3F)nc(-c3ccccn3)n2)s1
IC50 (PBMC): 62 nM

IC50 [1]: 52 nM
SMILES: CCCNc1ncc(-c2cc(-c3ccc(F)cc3)nc(-c3ccccn3)n2)s1

solubility [19]: < 5 ng/mL
IC50 [1]: 4 nM
IC50 (LIM domain kinase 2): 362 nM
IC50 (LIM domain kinase 1): 252 nM
SMILES: CC(C)Nc1ncc(-c2cc(-c3ccccc3Cl)nc(-c3ccccn3)n2)s1
IC50 (PBMC): 21 nM

IC50 [1]: 3940 nM
SMILES: CCCNc1ncc(-c2cc(-c3ccc(OCC)cc3Cl)nc(-c3ccccn3)n2)s1

IC50 [1]: 17 nM
SMILES: CCNc1ncc(-c2cc(-c3ccccc3Cl)nc(-c3ccccn3)n2)s1
IC50 (PBMC): 119 nM

IC50 [1]: 22 nM
SMILES: CCCNc1ncc(-c2cc(-c3ccccc3Cl)nc(-c3ccccn3)n2)s1
IC50 (PBMC): 17 nM

IC50 [1]: 573 nM
SMILES: CC(C)Nc1ncc(-c2cc(-c3ccccc3Cl)nc(N(C)C)n2)s1

IC50 [1]: 114 nM
SMILES: Nc1ncc(-c2cc(-c3ccccc3Cl)nc(-c3ccccn3)n2)s1

IC50 [1]: 859 nM
SMILES: CCCNc1ncc(-c2cc(-c3ccccc3OCC)nc(-c3ccccn3)n2)s1

IC50 [1]: 17 nM
SMILES: Clc1ccccc1-c1cc(-c2cnc(NC3CC3)s2)nc(-c2ccccn2)n1
IC50 (PBMC): 22 nM

IC50 [1]: 42 nM
SMILES: CCCNc1ncc(-c2cc(-c3ccc(F)cc3Cl)nc(-c3ccccn3)n2)s1
IC50 (PBMC): 17 nM
